Data from BindingDB's records for doi:10.1021/jm00024a011 (Boehringer Ingelheim Pharmaceuticals, 1995).

Molecular target: T1, Gag-Pol polyprotein [600-1027,R876K]/[600-1155] (Human immunodeficiency virus 1, UniProt P03366, R876K)
T1 construct: 600-1027; 600-1155
Test: HIV-1 RT Assay

With `O=C1Nc2c(CO)ccnc2N(C2CC2)c2ncccc21` the IC50 (pH 7.8, 22 °C) was 3 µM.
Work on `Nc1ccc(OCc2ccnc3c2NC(=O)c2cccnc2N3C2CC2)cc1` [7-(4-aminophenoxymethyl)-2-cyclopropyl-2,4,9,15-tetraazatricyclo[9.4.0.0^{3,8}]pentadeca-1(11),3,5,7,12,14-hexaen-10-one] yielded an IC50 of 0.1 µM.
